Experimental data from US12661338B2, “Heterocyclic compounds as modulators of beta-catenin / TCF4 interaction” (AGENCY FOR SCIENCE, TECHNOLOGY AND RESEARCH, priority 2019, dated 2026).
Like-named read-outs stand apart in the source and are kept apart here.

Key:
Type in all cases: cell-based
[1] = tested on: Wnt signalling (TOPFlash reporter, STF cells); assay: Wnt STF TOPFlash reporter dose response (Wnt3A-stimulated)
Description: (§1) Wnt STF reporter cells (HEK 293 cells stably transfected with TOPFlash reporter) and STF3A reporter cells (STF cells with constitutive secretion of Wnt3A) were kind gifts from David Virshup (Duke-NUS Graduate Medical School, Singapore). HCT116, DLD-1, and SW480 cell lines were obtained from ATCC. The Hippo pathway TEAD reporter (cat. #60618) and Myc signalling pathway reporter (cat. #60520) cells lines were purchased from BPS Bioscience, Inc.
(§2) The Wnt STF reporter cells were seeded as 20,000 cells in 100 μL culture medium per well in 96-well plates (Corning cat. #3903, Falcon cat. #353072). The next day, 5-fold dilutions of the compounds in DMSO were added to the cells at a final concentration of 1% DMSO. The cells were also stimulated with 500 ng/mL recombinant human Wnt3A (RnD systems, cat. #5036-WN-010). After 24 hr incubation, the viability of the cells was determined with cell counting kit-8 (CCK-8, Dojindo cat. #CK04) cell viability reagent according to the manufacturer's protocol while the TOPFlash reporter activity was determined with Steady-Glo luciferase reagent.
(§3) The average signal from DMSO treated wells was calculated for each plate, and the signal from each treatment well was normalized against the average DMSO signal from the respective plate. The normalized values were plotted against the concentrations tested using GraphPad Prism 5, and the EC50 values were determined through either three- or four-parameter nonlinear regression.

[2] = tested on: Wnt signalling (TOPFlash reporter, STF3A cells); assay: Wnt STF3A TOPFlash reporter dose response (constitutive Wnt3A)
Description: as §1
as §2, with “STF3A” for “STF”, “DMSO.” for “DMSO. The cells were also stimulated with 500 ng/mL recombinant human Wnt3A (RnD systems, cat. #5036-WN-010).”
as §3

[3] = tested on: STF3A cells; assay: Viability (toxicity) of STF3A reporter cells, CCK-8; conditions: Table 3; STF3A reporter cell line
Description: as §2, with “STF3A” for “STF”, “DMSO.” for “DMSO. The cells were also stimulated with 500 ng/mL recombinant human Wnt3A (RnD systems, cat. #5036-WN-010).”
as §3

[4] = tested on: Wnt target genes in HCT116 CRC cells; assay: Expression of beta-catenin (CTNNB1) and Wnt target genes in HCT116 CRC cells
Description: The effects of the GB1874 analogues were tested on the expression of Wnt target genes in HCT116 CRC cells.

[5] = tested on: STF cells; assay: Viability (toxicity) of STF reporter cells, CCK-8; conditions: Table 3; STF reporter cell line
Description: as §2, §3

[6] = tested on: HCT116 cells; assay: Proliferation assay (CellTiter-Glo); conditions: 10 μM daily
Description: HCT 116 cells were seeded as 3,000 cells in 100 μL growth medium per well in 96-well plates (Corning cat. #3903) and allowed to attached overnight. Cells were then treated continuously with compounds at a final concentration of 10 μM, 0.1% DMSO, for 4 days with daily medium change. Cell proliferation each day was determined using CellTiter-Glo luminescent cell viability assay (Promega cat. #G7573) according to the manufacturer's protocol.

[7] = tested on: CRC2413; assay: Viability of primary patient-derived colorectal cancer cell line
[8] = tested on: CRC1775; assay: as above
[9] = tested on: CRC2440; assay: as above
[10] = tested on: CRC1463; assay: as above
[11] = tested on: CRC1671; assay: as above
[12] = tested on: CRC2255; assay: as above
[13] = tested on: CRC1489; assay: as above
[14] = tested on: CRC2001; assay: as above
[15] = tested on: CRC1850; assay: as above; conditions: CRC1850, Liver Met
[16] = tested on: CRC948; assay: as above
[17] = tested on: CRC1837; assay: as above; conditions: CRC1837, Liver Met
[18] = tested on: CRC2367; assay: as above
[19] = tested on: CRC2423; assay: as above
[20] = tested on: CRC1177; assay: as above
[21] = tested on: CRC1707; assay: as above
[22] = tested on: CRC1414; assay: as above
[23] = tested on: CRC1258; assay: as above; conditions: CRC1258, Liver Met
[24] = tested on: CRC1846; assay: as above
[25] = tested on: Hippo pathway TEAD reporter cells; assay: Hippo signalling TEAD reporter dose response; conditions: 24 hr, activation of the Hippo pathway (decrease of reporter signal)
Description: The Hippo TEAD reporter cells were seeded as 100,000 cells in 100 μL assay medium per well in 96-well plates (Corning cat. #3903, Falcon cat. #353072). The assay medium consists of the growth medium without G-418. The next day, 5-fold dilutions of the compounds in DMSO were added to the cells at a final concentration of 1% DMSO. After 24 hr incubation, the viability of the cells was determined with CCK-8 cell viability reagent while the luciferase reporter activity was determined with Steady-Glo luciferase reagent.
as §3

[26] = tested on: DLD-1 cells; assay: Dose response viability of CRC cells (CellTiter-Glo); conditions: Homo sapiens, 24 hr
Description: (§4) HCT116, DLD-1, and SW480 cells were seeded as 5,000 cells in 100 μL growth medium per well in 96-well plates (Corning cat. #3903). The next day, 5-fold dilutions of the compounds in DMSO were added to the cells at a final concentration of 1% DMSO. After 24 hr incubation, the viability of the cells was determined with CellTiter-Glo luminescent cell viability reagent (Promega cat. #G7573) according to the manufacturer's protocol.
as §3

[27] = tested on: HCT116 cells; assay: as above; conditions: Homo sapiens, HCT-116, 24 hr
Description: as §4, §3

[28] = tested on: SW480 cells; assay: as above; conditions: Homo sapiens, 24 hr
Description: as §4, §3

[29] = tested on: Myc reporter (Luc)-HCT116 cells; assay: Myc signalling reporter dose response; conditions: Homo sapiens, HCT-116, 24 hr
Description: The Myc reporter (Luc)-HCT116 cells were seeded as 25,000 cells in 100 μL assay medium per well in 96-well plates (Corning cat. #3903, Falcon cat. #353072). The assay medium consists of the growth medium without G-418. The next day, 4-fold dilutions of the compounds in DMSO were added to the cells at a final concentration of 1% DMSO. After 24 hr incubation, the viability of the cells was determined with PrestoBlue cell viability reagent while the luciferase reporter activity was determined with Steady-Glo luciferase reagent.
as §3

[30] = Table 3, STF reporter cell line, read-out: STF Inhibition IC50
[31] = Table 3, STF3A reporter cell line, read-out: STF3A Inhibition IC50

| SMILES | IC50 [1, 30] [µM] | IC50 [2, 31] [µM] | IC50 [3] [µM] | beta-catenin (CTNNB1) gene expression [4] | expression of Wnt target genes AXIN2, BIRC5, BMP4, CCND1 [4] | IC50 [5] [µM] | other results |
| --- | --- | --- | --- | --- | --- | --- | --- |
| CCOC(=O)C(C)(C)Sc1nnc(COc2ccccc2)n1Cc1ccccc1 [GB1874E] | 12 | 16 | 100 | lesser effect | potently inhibit Wnt target genes | 71 |  |
| O=C(CSc1nnc(Cc2ccccc2)n1Cc1ccco1)NC1CCCC1 [GB1874B] | 48 | > 100 | > 100 |  |  | > 100 |  |
| Cc1ccc2nc(NC(=O)CSc3nc4c(c(=O)n3-c3ccccc3)SCC4)sc2c1 [IWP-2] |  |  |  |  |  |  | growth of HCT116 cells [6]: less effective at inhibiting the growth of HCT116 cells |
| CCc1ccc(OCc2nnc(SC(C)C(=O)C3C4CC5CC(C4)CC3C5)n2Cc2ccccc2)cc1 (stereo not drawn) [GB1874G] | 3.9 | 6.7 | > 100 | lesser effect | potently inhibit Wnt target genes | > 100 | IC50 ([1]; unit M, read-out: STF IC50): 3.9 µM |
| CCc1ccc(OCc2nnc(SC3CCCCC3=O)n2C(C)c2ccccc2)cc1 (stereo not drawn) [GB1874H] | 5 | 11 | 46 | lesser effect | potently inhibit Wnt target genes | 49 |  |
| Cc1ccc(OCc2nnc(SCC(=O)c3ccc(-c4ccccc4)cc3)n2Cc2ccco2)cc1 [GB1874F] | 5.4 | 10 | > 100 | lesser effect | potently inhibit Wnt target genes | 100 | IC50 ([1]; unit M, read-out: STF IC50): 5.4 µM |
| CC1CCCC(C)N1C(=O)CSc1nnc(COc2ccccc2)n1Cc1ccccc1 (stereo not drawn) [GB1874C] | 7.6 | 46 | 78 | lesser effect | potently inhibit Wnt target genes | 76 |  |
| Cc1ccccc1OCc1nnc(SCCSc2nnc(COc3ccccc3C)n2Cc2ccccc2)n1Cc1ccccc1 [GB1874A] | 28 | 1.2 | > 100 |  |  | > 100 |  |
| Oc1nc(-c2ccc(C(F)(F)F)cc2)nc2c1CSCC2 [XAV939, reference compound] |  |  |  |  |  |  | EC50 [7]: 200 µM; EC50 [8]: > 250 µM; growth of HCT116 cells [6]: less effective at inhibiting the growth of HCT116 cells; EC50 [9]: 75 µM; EC50 [10]: 250 µM; EC50 [11]: > 250 µM; EC50 [12]: > 250 µM; EC50 [13]: 105 µM; EC50 [14]: > 250 µM; EC50 [15]: 208 µM; EC50 [16]: > 250 µM; EC50 [17]: > 250 µM; EC50 [18]: > 250 µM; EC50 [19]: 250 µM; EC50 [20]: 250 µM; EC50 [21]: 135 µM; EC50 [22]: > 250 µM; EC50 [23]: 70 µM; EC50 [24]: 239 µM |
| CCc1ccc(-c2nc(CSCC(=O)NCCc3ccccc3)c(C)o2)cc1 [iCRT3, reference compound] | 11 | 42 | 74 | lesser effect | potently inhibit Wnt target genes | 88 | IC50 ([1]; Table 1, STF reporter cells, 500 ng/mL Wnt3A, 24 hr, read-out: IC50 Wnt (STF)): 27 µM; IC50 Hippo (activation) [25]: activated; IC50 ([25]; read-out: IC50 Hippo (activation)): 1.6 µM; IC50 ([2]; Table 1, STF3A reporter cells, 24 hr, read-out: IC50 Wnt (STF3A)): 64 µM; EC50 [26]: 48 µM; EC50 [27]: 39 µM; EC50 [28]: 64 µM; IC50 [29]: 50 µM |
| CCOc1ccc(C(=O)CSc2nnc(COc3ccccc3)n2Cc2ccccc2)cc1 [GB1874D] | 21 | 21 | 25 |  |  | > 100 |  |
